In patent publication US11905281B2 (Amgen Inc., priority 2017, dated 2024):

Key:
[1] = system: Phosphorylation of ERK1/2 in MIA PaCa-2 cells; assay: Phospho-ERK1/2 MSD Assay, MIA PaCa-2 (Table 16 conditions: 2 hours compound treatment); assay type: cell-based; details: MIA PaCa-2 cells, 10 ng/mL EGF for 10 min, read-out: p-ERK IC50 (MIA PaCa-2)
Experimental: (§1) For compounds in Table 16, the following assay conditions were employed:
Sixteen hours prior to compound treatment, MIA PaCa-2 or A549 cells were seeded in 96-well cell culture plates at a density of 25,000 cells/well and incubated at 37° C., 5% CO2. A compound dose-response titration was diluted in growth media, added to appropriate wells of a cell culture plate, and then incubated at 37° C., 5% CO2 for 2 hours. […] Phosphorylation of ERK1/2 in compound-treated lysates was assayed using Phospho-ERK1/2 Whole Cell Lysate kits (Meso Scale Discovery K151DWD) according to the manufacturer's protocol. Assay plates were read on a Meso Scale Discovery Sector Imager 6000, and data were analyzed using a 4-parameter logistic model to calculate IC50 values.

[2] = target: GDP-bound KRAS protein (aa 1-169), containing both G12C and C118A amino acid substitutions (Homo sapiens, UniProt P01116, C118A/G12C); assay: Coupled Nucleotide Exchange Assay (Table 16 conditions: 5 min pre-incubation); assay type: biochemical; details: 5 min compound pre-incubation; SOS-mediated nucleotide exchange, AlphaScreen
Chain of GDP-bound KRAS protein (aa 1-169), containing both G12C and C118A amino acid substitutions (P01116 1-169 isoform P01116-2 G12C/C118A): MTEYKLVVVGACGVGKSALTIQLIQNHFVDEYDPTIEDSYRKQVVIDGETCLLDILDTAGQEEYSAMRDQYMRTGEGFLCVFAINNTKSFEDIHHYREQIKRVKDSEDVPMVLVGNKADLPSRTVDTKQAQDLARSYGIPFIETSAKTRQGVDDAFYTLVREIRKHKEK
Experimental: as §1
The assay plates were then read on a PerkinElmer EnVision Multilabel Reader, using AlphaScreen® technology, and data were analyzed using a 4-parameter logistic model to calculate IC50 values.

| IC50 [1] [nM] | IC50 [2] [nM] | Structure (SMILES) |
| --- | --- | --- |
| 49 | 89 | C=CC(=O)N1CCN(c2nc(=O)n(-c3c(C)ccnc3C3CC3)c3nc(-c4ccccc4F)c(Cl)cc23)[C@@H](C)C1 (single isomer, unassigned) [Example 45-1] |
| 435 | 727 | C=CC(=O)N1CCN(c2nc(=O)n(-c3c(C)ccnc3C3CC3)c3nc(-c4ccccc4F)c(Cl)cc23)[C@@H](C)C1 (single isomer, unassigned) [Example 45-2] |
|  | 117 | C=CC(=O)N1CCN(c2nc(=O)n(-c3ccccc3C(C)C)c3nc(-c4ccccc4F)c(Cl)nc23)[C@@H](C)C1 (single isomer, unassigned) [Example 50-1] |
|  | 3690 | C=CC(=O)N1CCN(c2nc(=O)n(-c3ccccc3C(C)C)c3nc(-c4ccccc4F)c(Cl)nc23)[C@@H](C)C1 (single isomer, unassigned) [Example 50-2] |
|  | 11200 | C=CC(=O)N1CCN(c2nc(=O)n(-c3ccccc3C(C)C)c3nc(-c4ccccc4F)c(C)nc23)[C@@H](C)C1 (single isomer, unassigned) [Example 51-1] |
|  | 221 | C=CC(=O)N1CCN(c2nc(=O)n(-c3ccccc3C(C)C)c3nc(-c4ccccc4F)c(C)nc23)[C@@H](C)C1 (single isomer, unassigned) [Example 51-2] |
|  | 5990 | C=CC(=O)N1CCN(c2nc(=O)n(-c3ccccc3C(C)C)c3nc(-c4c(O)cccc4F)c(C)cc23)[C@@H](C)C1 (single isomer, unassigned) [Example 52-1] |
|  | 146 | C=CC(=O)N1CCN(c2nc(=O)n(-c3ccccc3C(C)C)c3nc(-c4c(O)cccc4F)c(C)cc23)[C@@H](C)C1 (single isomer, unassigned) [Example 52-2] |
| 93 | 98 | C=CC(=O)N1CCN(c2nc(=O)n(-c3c(C)cnn3C(C)C)c3nc(-c4ccccc4F)c(Cl)cc23)[C@@H](C)C1 (single isomer, unassigned) [Example 53-1] |
| 229 | 320 | C=CC(=O)N1CCN(c2nc(=O)n(-c3c(C)cnn3C(C)C)c3nc(-c4ccccc4F)c(Cl)cc23)[C@@H](C)C1 (single isomer, unassigned) [Example 53-2] |
|  | 1560 | C=CC(=O)N1CCN(c2nc(=O)n(-c3c(C)ccnc3C3CC3)c3nc(-c4c(O)cccc4F)c(F)cc23)[C@@H](C)C1 [Example 42-2, 1-(2-cyclopropyl-4-methyl-3-pyridinyl)-6-fluoro-7-(2-fluoro-6-hydroxyphenyl)-4-((2S)-2-methyl-4-(2-propenoyl)-1-piperazinyl)pyrido-[2,3-d]pyrimidin-2(1H)-one] |
|  | 276 | C=CC(=O)N1CCN(c2nc(=O)n(-c3ccccc3C(C)C)c3nc(-c4ccccc4F)c(Cl)nc23)[C@@H](C)C1 [Example 50, 6-Chloro-7-(2-fluorophenyl)-4-((2S)-2-methyl-4-(2-propenoyl)-1-piperazinyl)-1-(2-(2-propanyl)phenyl)-2(1H)-pteridinone] |
|  | 338 | C=CC(=O)N1CCN(c2nc(=O)n(-c3ccccc3C(C)C)c3nc(-c4c(O)cccc4F)c(C)cc23)[C@@H](C)C1 [Example 52, 7-(2-fluoro-6-hydroxyphenyl)-6-methyl-4-((2S)-2-methyl-4-(2-propenoyl)-1-piperazinyl)-1-(2-(2-propanyl)phenyl)pyrido[2,3-d]pyrimidin-2(1H)-one] |

Continued, compound first:

| Structure (SMILES) | IC50 [1] [nM] | IC50 [2] [nM] |
| --- | --- | --- |
| C=CC(=O)N1CCN(c2nc(=O)n(-c3ccccc3C(C)(C)C)c3nc(-c4c(O)cccc4F)c(Cl)cc23)[C@@H](C)C1 (single isomer, unassigned) [Example 49-1] |  | 2580 |
| C=CC(=O)N1CCN(c2nc(=O)n(-c3ccccc3C(C)(C)C)c3nc(-c4c(O)cccc4F)c(Cl)cc23)[C@@H](C)C1 (single isomer, unassigned) [Example 49-2] | 51 | 117 |
| C=CC(=O)N1CCN(c2nc(=O)n(-c3c(C)cccc3C(C)C)c3nc(-c4c(O)cccc4F)c(Cl)cc23)[C@@H](C)C1 [Example 39-1, 6-chloro-7-(2-fluoro-6-hydroxyphenyl)-1-(2-methyl-6-(2-propanyl)phenyl)-4-((2S)-2-methyl-4-(2-propenoyl)-1-piperazinyl)pyrido-[2,3-d]pyrimidin-2(1H)-one] | 28 | 25 |
| C=CC(=O)N1CCN(c2nc(=O)n(-c3c(C)cccc3C(C)C)c3nc(-c4c(O)cccc4F)c(Cl)cc23)[C@@H](C)C1 [Example 39-2, 6-chloro-7-(2-fluoro-6-hydroxyphenyl)-1-(2-methyl-6-(2-propanyl)phenyl)-4-((2S)-2-methyl-4-(2-propenoyl)-1-piperazinyl)pyrido-[2,3-d]pyrimidin-2(1H)-one] | 195 | 222 |
| C=CC(=O)N1CCN(c2nc(=O)n(-c3c(C)ccnc3C(C)C)c3nc(-c4ccccc4F)c(Cl)cc23)[C@@H](C)C1 [Example 40, 6-Chloro-7-(2-fluorophenyl)-1-(4-methyl-2-(2-propanyl)-3-pyridinyl)-4-((2S)-2-methyl-4-(2-propenoyl)-1-piperazinyl)pyrido[2,3-d]pyrimidin-2(1H)-one] | 29 | 63 |
| C=CC(=O)N1CCN(c2nc(=O)n(-c3c(C)ccnc3C(C)C)c3nc(-c4ccccc4F)c(Cl)cc23)[C@@H](C)C1 [Example 40-1, 6-chloro-7-(2-fluoro-phenyl)-1-(4-methyl-2-(2-propanyl)-3-pyridinyl)-4-((2S)-2-methyl-4-(2-propenoyl)-1-piperazinyl)pyrido-[2,3-d]pyrimidin-2(1H)-one] | 22 | 57 |
| C=CC(=O)N1CCN(c2nc(=O)n(-c3c(C)ccnc3C(C)C)c3nc(-c4ccccc4F)c(Cl)cc23)[C@@H](C)C1 [Example 40-2, 6-chloro-7-(2-fluoro-phenyl)-1-(4-methyl-2-(2-propanyl)-3-pyridinyl)-4-((2S)-2-methyl-4-(2-propenoyl)-1-piperazinyl)pyrido-[2,3-d]pyrimidin-2(1H)-one] | 321 | 597 |
| C=CC(=O)N1CCN(c2nc(=O)n(-c3c(C)ccnc3C(C)C)c3nc(-c4c(O)cccc4F)c(F)cc23)[C@@H](C)C1 [Example 41, 6-Fluoro-7-(2-fluoro-6-hydroxyphenyl)-1-(4-methyl-2-(2-propanyl)-3-pyridinyl)-4-((2S)-2-methyl-4-(2-propenoyl)-1-piperazinyl)pyrido[2,3-d]pyrimidin-2(1H)-one] | 85 |  |
| C=CC(=O)N1CCN(c2nc(=O)n(-c3c(C)ccnc3C(C)C)c3nc(-c4c(O)cccc4F)c(F)cc23)[C@@H](C)C1 [Example 41-1, 6-fluoro-7-(2-fluoro-6-hydroxyphenyl)-1-(4-methyl-2-(2-propanyl)-3-pyridinyl)-4-((2S)-2-methyl-4-(2-propenoyl)-1-piperazinyl)pyrido-[2,3-d]pyrimidin-2(1H)-one] | 72 |  |
| C=CC(=O)N1CCN(c2nc(=O)n(-c3c(C)ccnc3C(C)C)c3nc(-c4c(O)cccc4F)c(F)cc23)[C@@H](C)C1 [Example 41-2, 6-fluoro-7-(2-fluoro-6-hydroxyphenyl)-1-(4-methyl-2-(2-propanyl)-3-pyridinyl)-4-((2S)-2-methyl-4-(2-propenoyl)-1-piperazinyl)pyrido-[2,3-d]pyrimidin-2(1H)-one] | 1660 |  |
